According to US20110027226A1, “INDOLOPYRIDINES AS INHIBITORS OF THE KINESIN SPINDLE PROTEIN (EG5)” (4SC AG, priority 2007, published 2011):

Key:
[1] = system: RKO human colon adenocarcinoma cells (RKOp27 subclone, uninduced, proliferating); test: Alamar Blue cell viability assay, anti-proliferative/cytotoxic activity, RKO p27 uninduced (proliferating); assay type: cell-based; settings: 72 hours incubation, read-out: −log EC50 [mol/l] RKO p27 uninduced (proliferating) (converted)
Experimental: The compounds are dissolved as 10 mM solutions in DMSO and subsequently diluted in semi-logarithmic steps. DMSO dilutions are further diluted 1:100 v:v into Dulbecco's modified Eagle's medium (DMEM) containing 10% fetal calf serum to a final concentration twice as much as the final concentration in the test. RKO subclones are seeded into 96 well flat bottom plates at a density of 4000 cells per well in a volume of 50 μl per well. 24 hours after seeding the 50 μl each of the compound dilutions in DMEM medium are added into each well of the 96 well plate. Each compound dilution is tested as triplicates. Wells containing untreated control cells are filled with 50 μl DMEM medium containing 1% DMSO. The cells are then incubated with the substances for 72 hours at 37° C. in a humidified atmosphere containing 5% carbon dioxide. To determine the viability of the cells, 10 μl of an Alamar Blue solution (Biosource) are added and the fluorescence is measured at an extinction of 544 nm and an emission of 590 nm. For the calculation of the cell viability the emission value from untreated cells is set as 100% viability and the emission rates of treated cells are set in relation to the values of untreated cells. Viabilities are expressed as % values. The Graphpad Prism program is used for the calculation of EC50 values for anti-proliferative/cytotoxic activity out of the obtained dose-response curves.
Each compound dilution is tested as triplicates. Wells containing untreated control cells are filled with 50 μl DMEM medium containing 1% DMSO. The cells are then incubated with the substances for 72 hours at 37° C. in a humidified atmosphere containing 5% carbon dioxide. To determine the viability of the cells, 10 μl of an Alamar Blue solution (Biosource) are added and the fluorescence is measured at an extinction of 544 nm and an emission of 590 nm. For the calculation of the cell viability the emission value from untreated cells is set as 100% viability and the emission rates of treated cells are set in relation to the values of untreated cells. Viabilities are expressed as % values. The Graphpad Prism program (GraphPad Software, Inc) is used for the calculation of EC50 values out of the obtained dose-response curves. Viability is compared of proliferating cells grown in the absence of the inducer Ponasterone A, versus viability of cells arrested by the expression of ectopic p27Kip1 induced by Ponasterone A.

Row | Compound | melting point | EC50 [1]
1 | CN1C(=O)[C@@H]2Cc3c([nH]c4cc(F)ccc34)[C@@H](c3cccc(O)c3)N2C1=O (racemic) [Example 2, (3aSR,10RS)-7-Fluoro-10-(3-hydroxy-phenyl)-2-methyl-3a,4,9,10-tetrahydro-2,9,10a-triaza-cyclopenta[b]fluorene-1,3-dione] | 279 to 283 °C | ≤ 1 µM
2 | Cc1cccc2[nH]c3c(c12)C[C@H]1C(=O)N(C)C(=O)N1[C@@H]3c1cccc(O)c1 (racemic) [Example 5, (3aSR,10RS)-10-(3-Hydroxy-phenyl)-2,5-dimethyl-3a,4,9,10-tetrahydro-2,9,10a-triaza-cyclopenta[b]fluorene-1,3-dione] | 348 to 352 °C | ≤ 1 µM
3 | Cc1ccc2[nH]c3c(c2c1)C[C@H]1C(=O)N(C)C(=O)N1[C@@H]3c1cccc(O)c1 (racemic) [Example 4, (3aSR,10RS)-10-(3-Hydroxy-phenyl)-2,6-dimethyl-3a,4,9,10-tetrahydro-2,9,10a-triaza-cyclopenta[b]fluorene-1,3-dione] |  | ≤ 1 µM
4 | CN1C(=O)[C@@H]2Cc3c([nH]c4ccc(Br)cc34)[C@@H](c3cccc(O)c3)N2C1=O (racemic) [Example 3, (3aSR,10RS)-6-Bromo-10-(3-hydroxy-phenyl)-2-methyl-3a,4,9,10-tetrahydro-2,9,10a-triaza-cyclopenta[b]fluorene-1,3-dione] |  | ≤ 1 µM

Second part, led by results:

Row | melting point | Compound | EC50 [1]
5 | 282 to 285 °C | Cc1ccc2c3c([nH]c2c1)[C@@H](c1cccc(O)c1)N1C(=O)N(C)C(=O)[C@@H]1C3 (racemic) [Example 6, (3aSR,10RS)-10-(3-Hydroxy-phenyl)-2,7-dimethyl-3a,4,9,10-tetrahydro-2,9,10a-triaza-cyclopenta[b]fluorene-1,3-dione] | 
6 | 172 to 175 °C | COc1ccc2[nH]c3c(c2c1)C[C@H]1C(=O)N(C)C(=O)N1[C@@H]3c1cccc(O)c1 (racemic) [Example 7, (3aSR,10RS)-10-(3-Hydroxy-phenyl)-6-methoxy-2-methyl-3a,4,9,10-tetrahydro-2,9,10a-triaza-cyclopenta[b]fluorene-1,3-dione] | ≤ 1 µM
